# Key:
# monomeric Aβ = test: Immunoblot of monomeric Aβ in brain protein fractions; assay type: in vivo, mice; details: anti Aβ1-16 antibody, vs PBS
# Description: Proteins from hemi-forebrains were extracted using a modified method of the procedure published by Lesné et al (Lesne et al., 2006). All manipulations were done on ice to minimize protein degradation. One hemi-forebrain was placed in a 1 ml syringe with a 20 G needle. 500 l of buffer A (50 mM Tris-HCl pH 7.6, 0.01% NP-40, 150 mM NaCl, 2 mM EDTA, 0.1% SDS, 1 mM phenylmethylsulfonyl fluoride (PMSF), protease inhibitor cocktail) were added and 10 up and down were made to homogenize the tissue, followed by a 5 minutes centrifugation at 3 000 RPM at 4° C. The supernatant (extracellular proteins enriched fraction) was then collected and frozen at −80° C. […] Protein concentration of each fraction was determined using the Quantipro BCA assay kit (Sigma) according to the manufacturer protocol.
# For total Aβ detection, 10-30 μg of extracellular, cytoplasmic and membrane protein fractions were separated on a precast 10-20% SDS polyacrylamide Tris-Tricine gel (Bio-Rad). Separated proteins were then transferred onto polyvinylidene fluoride (PVDF) membranes (PerkinElmer Life and Analytical Sciences) and detected by Western blotting. […]
# Quantification was done by determining integrative density of the bands using a gel imaging system (scanner Agfa Arcus II; NIHImage J software version 1.32j) and background values were removed. […] Results are expressed as mean±SEM. […]
# APPSwe/PS1 mice = test: Aβ plaque loading in brain, stereological analysis; assay type: in vivo; details: 50 μg/mouse i.p. weekly for 12 weeks
# Description: Five groups of APPSwe/PS1 mice have received one a week for a period of 12 weeks the following treatment: • Gr1: APPSwe/PS1+NaCl 0.9% n(=20), i.p. injections • Gr4: APPSwe/PS1+CRX527 (20 μg/mouse, 130 μl, n=10), i.p. injections • Gr5: APPSwe/PS1+CRX601 (20 μg/mouse, 130 μl, n=10), i.p. injections • Gr6: APPSwe/PS1+3D MPL (50 μg/mouse, 130 μl, n=10), i.p. injections • Gr8 APPSwe/PS1+AS15 • Gr9: APPSwe/PS1+AS01B ( 1/10th of human dose μg/kg, 50 μl, n=10), i.m. injections
# Mice were anesthetized under isofluorane and blood was drawn via cardiac puncture before head decapitation. Brains were rapidly removed from the skulls and placed in cold phosphate buffered saline (PBS) solution. Then hemibrains were separated and olfactory bulbs and cerebellum were removed. One hemibrain was rapidly frozen in liquid nitrogen and stored at −80° C. for protein analysis. The other one was postfixed for 2-4 days in 4% paraformaldehyde (PFA), pH 9.5 at 4° C., and then placed in a PFA solution containing 10% sucrose overnight at 4° C. […]
# An observer who was blind to the treatment status of the material did all quantitative histological analyses. […] Briefly, the contours of the prefrontal cortex, the hippocampus and the cortex areas were traced as virtual overlay on the […] images and areas were calculated. The area occupied by all Aβ-labeled plaques was determined. […]
substance,measurement,setting,value
3-O-desacyl-4′-monophosphoryl lipid A [3D MPL],monomeric Aβ in extra-cellular enriched fractions from brains,monomeric Aβ,reduction
same,Amyloid beta plaque number,APPSwe/PS1 mice,statistically significant reduction
same,Aβ total plaque loading by immunofluorescence vs PBS control group,APPSwe/PS1 mice,significant difference

# Reference: patent US20130216614A1, “IMMUNOGENIC COMPOSITIONS AND METHODS FOR TREATING NUEROLOGIC DISORDERS” (Glaxosmithkline Biologicals S.A., priority 2010, published 2013)
